Experimental data published in patent US20210255205A1, “COMPOSITIONS AND METHODS FOR TREATING METABOLIC DISEASE” (THE REGENTS OF THE UNIVERSITY OF CALIFORNIA, priority 2018, published 2021).

Key:
Aster-B GRAM domain [1] = target: T1, Aster-B GRAM domain (Mus musculus, UniProt Q80TI0); test: liposome co-sedimentation assay; assay type: binding; conditions: sucrose-loaded heavy liposomes, 80-85% PC or PS
T1 construct: B GRAM (Aster-B1-337) was conducted using PIP Strips (Echelon Biosciences); made in house; host or cells: Sf9 insect cells
T1 sequence (Q80TI0 41-377 limits assumed): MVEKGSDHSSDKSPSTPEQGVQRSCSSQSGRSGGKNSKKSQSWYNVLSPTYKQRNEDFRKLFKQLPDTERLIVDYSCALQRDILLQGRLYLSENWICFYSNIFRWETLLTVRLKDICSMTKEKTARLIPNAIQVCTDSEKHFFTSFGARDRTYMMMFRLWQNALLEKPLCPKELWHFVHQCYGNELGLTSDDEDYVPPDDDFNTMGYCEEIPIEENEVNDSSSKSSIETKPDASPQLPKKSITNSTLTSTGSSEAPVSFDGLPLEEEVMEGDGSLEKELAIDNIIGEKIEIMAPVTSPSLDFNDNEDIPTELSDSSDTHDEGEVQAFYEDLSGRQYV
Experimental: FIG. 9A: Protein-lipid overlay over purified mouse Aster-B GRAM domain with various phospholipid species. PA and PS correspond to phosphatidic acid and phosphatidylserine, respectively. FIG. 9A discloses “6xHis” as SEQ ID NO: 11. FIG. 9B: Purified Aster-B GRAM domain was incubated with sucrose-loaded heavy liposomes containing Dansyl-PE and 80-85% PC or 80-85% PS+/−5% Cholesterol. Liposomes were sedimented, washed, and analyzed by immunoblotting for associated Aster-B Gram protein (anti-His antibody). FIG. 9C: Localization of full-length and B ΔGRAM Aster-B-GFP constructs with plasma membrane (CellMask stain) expressed in HeLa cells in the presence or absence of cholesterol loading imaged by live cell confocal microscopy. […] FIG. 9E: Quantification of Aster-B PH-EGFP intensity in the TIRF plane upon cholesterol loading (left panel; n=2-3 cells, error bars+/−SD). […] TIRF videos recorded 5 slices (slices 3-5 were used to calculate FO) before cholesterol addition.
(§1) The Aster proteins contain an N-terminal GRAM domain, a structural motif related to the pleckstrin homology domain that is found in glucosyltransferases, Rab-like GTPase activators, myotubularins, and other membrane-associated proteins. […] Given that phosphatidylserine is highly enriched in the inner leaflet of the PM, it was further determined if the Aster-B GRAM domain was associated with phosphatidylserine-containing liposomes.

Aster-B GRAM domain [2] = target: T1, Aster-B GRAM domain; test: protein-lipid overlay (PIP Strips); assay type: binding; conditions: lipid strip, 100 pmol lipid per spot
Experimental: FIG. 9A: Protein-lipid overlay over purified mouse Aster-B GRAM domain with various phospholipid species. PA and PS correspond to phosphatidic acid and phosphatidylserine, respectively. FIG. 9A discloses “6xHis” as SEQ ID NO: 11. FIG. 9B: Purified Aster-B GRAM domain was incubated with sucrose-loaded heavy liposomes containing Dansyl-PE and 80-85% PC or 80-85% PS+/−5% Cholesterol. Liposomes were sedimented, washed, and analyzed by immunoblotting for associated Aster-B Gram protein (anti-His antibody). FIG. 9C: Localization of full-length and B ΔGRAM Aster-B-GFP constructs with plasma membrane (CellMask stain) expressed in HeLa cells in the presence or absence of cholesterol loading imaged by live cell confocal microscopy. […] FIG. 9E: Quantification of Aster-B PH-EGFP intensity in the TIRF plane upon cholesterol loading (left panel; n=2-3 cells, error bars+/−SD). […] TIRF videos recorded 5 slices (slices 3-5 were used to calculate FO) before cholesterol addition. […]
as §1

co-sedimentation of GRAM domain with liposomes (Aster-B GRAM domain [1]): pelleted with
interaction with purified Aster-B GRAM domain (Aster-B GRAM domain [2]): interacted strongly
Substance: phosphatidylserine [phosphatidylserine (PS)]
